We go through 2 molecules from US20210000917A1, “METHODS AND COMPOSITION FOR THE TREATMENT OF ALLERGIC ASTHMA” (INSERM (Institut National de la Santé et de la Recherche …, priority 2018, published 2021).

Series [1] deals with mouse model of HDM-induced asthma. The experiment in a line: Airway hyperresponsiveness measurement (flexiVent, methacholine) in mouse model of HDM-induced asthma. Format: in vivo, BALB/c female mice. Particulars: for respiratory function (airway resistances and elastance to increasing doses of methacholine): 20 μg peptide in Alum subcutaneously on day 30 and day 34, measured day 38, vs asthmatic-like (HDM) mice. Here is the method:
(§1) BALB/c female mice aged 6 to 8 weeks were purchased from Charles River Breeding Laboratories and used for all experiments. The animals were housed in UTE IRS-UN platform (Nantes, France). The mice were maintained under specific pathogen-free, temperature-controlled conditions under a strict 12-hour light-dark cycle and were given free access to food and water. The mice were sensitized on days 0, 7, 14 and 21 by percutaneous application of 500 μg of total extract of Dermatophagoïdes farinae (HDM) (Stallergenes, Antony, France) in 20 μl of dimethylsulfoxide (Sigma- Aldrich, St Louis, Mo.) on the ears without any synthetic adjuvant. The mice were challenged intranasally with 250 μg of HDM (House Dust Mite) in 40 μl of sterile PBS on day 27, 28 and 29 to induce asthma and again on days 35, 36 and 37 to induce asthma exacerbation. Animals were anesthetized with 100 μg of xylazine (ROMPUN 2%, Bayer, Lyon, France, 15 mg/kg) intraperitoneally and 100 μl of ketamine (IMALGENE100, Merial, Lyon, France, 80 mg/kg) for both sensitizations and challenges. Mice were sacrified by sublethal injection of dolethal (vetoquinol) on day 39 (FIG. 1A). For dynamic lung resistance measurements, mice were anesthetized with 200 μl of a ketamine-xylazine mix and paralyzed with 100 μl of rocuronium bromide (ESMERON, Organon, Kloosterstraat, The Netherlands, 10 mg/ml) intraperitoneally.
(§2) Derivative peptide (Derp 2.1) was purified as previously described by Chen et al. 1Peptide was injected on day 30 after de third challenge and on day 34 before the fourth challenge. Derp 2.1 was solubilized with sterile PBS to a final concentration of 100 μg/ml. pproximately 200 μl of a solution of Alum (Imject Alum, Thermo Scientific) containing 20 μg of the peptide was injected subcutaneously in the neck of the mice.
Dynamic lung resistances were measured using a flexiVent (SCIREQ, Emka). Mice were anesthetized and connected via an endotracheal cannula to a flexiVent system. […] Airway resistances wee continuously monitored and recorded according to manufacturer's instructions.

The test system is the same in series [2]. Briefly: BAL cell counts by flow cytometry in mouse model of HDM-induced asthma. Format: in vivo, BALB/c female mice. The settings on record: 20 μg peptide in Alum subcutaneously on day 30 and day 34, BAL day 38. On the procedure:
as §1, with “Mice were sacrified by sublethal injection of dolethal (vetoquinol) on day 39 (FIG. 1A).” left out
as §2
One milliliter of sterile PBS was administered to mice through a flexible catheter. Cells and supernatants from the removed fluid were separated by centrifugation. The total cell number was determined by using flow cytometry (see below). Supernatants were stored at −20° C.
For analysis of BAL cells, the following antibodies were used: CD3 PE-Cy7, F4/80 FITC (eBioscience); CCR3 APC (R&D Systems) and Ly6G-PerCP Cy5.5 (BD Biosciences). Stained cells resuspended in PBS were acquired on a BD LSR II (BD Biosciences) and were analyzed on FlowJo software (Tree Star). To study lung, mediastinal lymph nodes (mLN) and spleen T-cell responses, these organs were removed and mechanically disrupted in RPMI 1640 media. Cells were passed through a 40 μm filter. Red blood cells from lung and spleen were lysed with a solution of Red Blood Cells lysis (Sigma Aldrich). Cells from mLN, lung and spleen were transferred to a 96-wells round-bottom plate and were stimulated for 5 hours with a mix containing phorbol 12-myristate 13-acetate (50 ng/ml) and ionomycin (500 ng/ml; Sigma-Aldrich) together. […]
Background: A flow cytometer gives signals particle by particle.

The next series concerns Der p 2-specific IgE. The experiment in a line: Der p 2-specific IgE level in mouse model of HDM-induced asthma. The series is classed as in vivo, BALB/c female mice. The settings on record: 20 μg peptide in Alum subcutaneously on day 30 and day 34; FIG. 1E serum level. Here is the method: as §1, with “intraperitoneally. […]” for “intraperitoneally.”
For series [3], the system named is mouse model of HDM-induced asthma. The experiment in a line: Treg and natural killer cells by flow cytometry in mouse model of HDM-induced asthma. Particulars: 20 μg peptide in Alum subcutaneously on day 30 and day 34. The series is classed as in vivo, BALB/c female mice. On the procedure:
as §1, with “Mice were sacrified by sublethal injection of dolethal (vetoquinol) on day 39 (FIG. 1A). For dynamic lung resistance measurements, mice were anesthetized with 200 μl of a ketamine-xylazine mix and paralyzed with 100 μl of rocuronium bromide (ESMERON, Organon, Kloosterstraat, The Netherlands, 10 mg/ml) intraperitoneally.” left out
For analysis of BAL cells, the following antibodies were used: CD3 PE-Cy7, F4/80 FITC (eBioscience); CCR3 APC (R&D Systems) and Ly6G-PerCP Cy5.5 (BD Biosciences). Stained cells resuspended in PBS were acquired on a BD LSR II (BD Biosciences) and were analyzed on FlowJo software (Tree Star). […]

For series [4] the following is noted: cited from earlier work; for in vivo allergenic activity and allergenicity: compared with the Derp 2 allergen; for immunogenicity: in vivo.

As to “Derp2.1: polypeptide having a sequence consisting of amino acids 18 to 70 of SEQ ID NO: 1 (Der p 2 fragment); rDer p 2.1 is the recombinant form from E. coli (DQVDVKDCANHEIKKVLVPGCHGSEPCIIHRGKPFQLEAVFEANQNTKTAKIE; listed as Dermatophagoides pteronyssinus)”, the “respiratory function (airway resistances and elastance to increasing doses of methacholine)” value in series [1] is “improved”. For the same molecule, the “respiratory function (airway resistances and elastance to increasing doses of methacholine)” value in series [1] (listed as derp2.1) is “respiratory improvement”. Moreover, in series [1] (summary statement comparing Derp 2.1 with Der p 2.2), the “airway hyperresponsiveness and asthma exacerbations” value is “enables to decrease airway hyperresponsiveness and prevent asthma exacerbations”. Moreover, in series [2], the “eosinophils in BAL” value is on record as “reduced” and the “neutrophils in BAL” value is recorded as “reduced”. In addition, in series [2] (listed as derp2.1), the “eosinophils in BAL” value is “reduction” and the “neutrophils in BAL” value was “reduction”. In the series with Der p 2-specific IgE, the “Derp2 specific IgE” value is “reduction”. Moreover, the “regulators lymphocytes T (Treg cells)” value in series [3] (FIG. 1F frequency of lung Treg cells) is recorded as “increase”. For the same molecule, the natural killer cells entry in series [3] (FIG. 1G number of lung natural killer cells) is recorded as “reduction”. Also, in series [4], the “in vivo allergenic activity and allergenicity” value is “less in vivo allergenic activity and allergenicity than the Derp 2 allergen”; the immunogenicity entry is reported as “preserved immunogenicity”.

B1: Der p 2.2: polypeptide consisting of the amino acid sequence 71 to 146 of SEQ ID NO: 1 (Der p 2 fragment) (protein, listed as Dermatophagoides pteronyssinus)
chain: IKASIDGLEVDVPGIDPNACHYMKCPLVKGQQYDIKYTWNVPKIAPKSENVVVTVKVMGDDGVLACAIATHAKIRD
With B1, in series [4], the “in vivo allergenic activity and allergenicity” value is “less in vivo allergenic activity and allergenicity than the Derp 2 allergen”; the immunogenicity entry was “preserved immunogenicity”.
